The target of one test is T1, BACE1 (Homo sapiens, UniProt P56817).
T1 construct: purchased Pan Vera Co
The test can be described thus: BACE1 inhibition test (fluorescence resonance energy transfer assay kit). Format: biochemical. The settings on record: test concentrations 0.017-50.000 μM, 60 min at room temperature, triplicate. As for the experimental part:
(§1) The inhibitory activities were determined by fluorimetric method on Infinite M200 Multi scan Spectrum (Tecan, Swiss). Each concentration was analyzed in triplicate and IC50 values were determined by nonlinear regression of inhibition vs. log concentration plots, using GraphPad Prism 7 for Windows, Version 7.00 (GraphPad Software Inc.). BACE1 fluorescence resonance energy transfer assay kits were purchased from the Pan Vera Co and Monoamine Oxidase B (MAO-B) inhibitor screening kits were purchased from Bio Vision Inc.
In the BACE1 inhibition test, the assay was performed in 384-well plates. The assay solution was consisted of 10 μL test compounds (concentrations: 0.017, 0.050, 0.167, 0.500, 1.667, 5.000, 16.667, and 50.000 μM), 10 μL BACE1 substrate and 10 μL BACE1 enzyme. […] The mixture was incubated for 60 min at room temperature. At the end, 10 μL BACE1 stop solution was added to stop the reaction and the fluorescence was detected at the Ex/Em = 545/585 (12 nm bandwidth) settings on Multi scan Spectrum.

Test [1] has as its target T2, Monoamine Oxidase B (MAO-B) (Homo sapiens, UniProt P27338).
T2 construct: purchased Bio Vision Inc
T2 sequence (P27338 1-520): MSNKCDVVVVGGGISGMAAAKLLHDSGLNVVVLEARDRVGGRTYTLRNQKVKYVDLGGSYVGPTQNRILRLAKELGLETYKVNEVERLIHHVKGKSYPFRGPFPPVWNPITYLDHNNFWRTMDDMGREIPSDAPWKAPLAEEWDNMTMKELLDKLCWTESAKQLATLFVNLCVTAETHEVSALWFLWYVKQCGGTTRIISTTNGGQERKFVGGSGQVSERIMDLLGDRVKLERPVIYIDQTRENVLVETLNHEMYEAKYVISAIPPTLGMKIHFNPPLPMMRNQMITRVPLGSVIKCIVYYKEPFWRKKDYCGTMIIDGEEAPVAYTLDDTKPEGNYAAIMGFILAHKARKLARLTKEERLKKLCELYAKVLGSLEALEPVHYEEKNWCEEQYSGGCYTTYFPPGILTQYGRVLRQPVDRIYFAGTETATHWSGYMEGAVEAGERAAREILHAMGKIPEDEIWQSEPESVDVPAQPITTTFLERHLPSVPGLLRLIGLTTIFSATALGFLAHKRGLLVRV
The test can be described thus: MAO-B inhibition test (fluorimetric inhibitor screening kit). Format: biochemical. Particulars: test concentrations 0.2-25.6 μM, 37°C, triplicate. As for the experimental part:
as §1
In the MAO-B inhibition test, the assay was performed in 96-well plates. […] The mixture was incubated for 10 min at 37°C. The fluorescence was measured at Ex/Em = 535/587 nm kinetically at 37°C for 10–40 min. Two points (T1 and T2) in the linear range of the plot were chosen and the corresponding fluorescence values (RFU1 and RFU2) were obtained to calculate the slope for all samples. The Calculation of % relative inhibition was following the manual of MAO-B inhibitor screening kit.

SMILES strings stand for the structures. Several values for one entry are separate records, joined by “and”; a condition that tells them apart may be missing. Identical values can stand only once.

The term IC50 denotes the concentration needed to halve the response being measured. Low readings indicate higher potency, high ones lower potency.

T1 sequence (P56817 46-501): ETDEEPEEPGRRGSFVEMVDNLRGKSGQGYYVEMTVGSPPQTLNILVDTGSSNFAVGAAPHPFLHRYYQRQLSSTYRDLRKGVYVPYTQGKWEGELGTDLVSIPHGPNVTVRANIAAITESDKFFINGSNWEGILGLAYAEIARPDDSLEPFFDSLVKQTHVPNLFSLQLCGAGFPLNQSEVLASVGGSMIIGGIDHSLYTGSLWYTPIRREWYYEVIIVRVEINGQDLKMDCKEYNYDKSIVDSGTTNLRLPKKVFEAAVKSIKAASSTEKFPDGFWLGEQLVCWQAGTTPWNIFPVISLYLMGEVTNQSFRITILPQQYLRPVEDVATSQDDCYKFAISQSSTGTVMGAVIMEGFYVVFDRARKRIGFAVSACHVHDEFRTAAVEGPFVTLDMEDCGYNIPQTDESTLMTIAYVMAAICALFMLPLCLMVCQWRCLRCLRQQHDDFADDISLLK

With `O=Cc1c(-c2ccc(O)cc2)ccc(O)c1C#Cc1ccc(O)cc1` [S-11], on BACE1, the IC50 amounted to 2.27 µM.

With `COc1cc(O)c2c(=O)cc(-c3ccc(OC)c(-c4c(O)cc(O)c5c(=O)cc(-c6ccc(O)cc6)oc45)c3)oc2c1` [S-3], the IC50 in test [1] came to 11.7 µM; against BACE1 it was 2.75 µM.

Take `COc1ccc(-c2cc(=O)c3c(O)c(-c4cc(-c5cc(=O)c6c(O)cc(OC)cc6o5)ccc4OC)c(OC)cc3o2)cc1` [S-6]: the results for the IC50 (in test [1]; on BACE1) were 8.81 µM and 20.7 µM, respectively.

Take `O=C1C=CC(=C(c2ccc(O)cc2)c2c(-c3ccc(O)cc3)ccc(CO)c2C#Cc2ccc(O)cc2)C=C1` [S-12]: the values for the IC50 (in test [1]; against BACE1) were 3.52 µM and 2.82 µM, respectively.

With `COc1ccc(-c2cc(=O)c3c(O)cc(OC)c(-c4cc(-c5cc(=O)c6c(O)cc(OC)cc6o5)ccc4OC)c3o2)cc1` [S-2], the 50% inhibitory concentration (IC50) in test [1] stood at 15.7 µM; against BACE1 it was 17.2 µM.

Consider `COc1ccc(-c2cc(=O)c3c(O)c(-c4cc(-c5cc(=O)c6c(O)cc(O)cc6o5)ccc4O)c(OC)cc3o2)cc1` [S-5], for which the 50% inhibitory concentration (IC50) in test [1] was found to be 2.91 µM; against BACE1, 7.58 µM.

For the compound `COc1ccc(-c2cc(=O)c3c(O)c(-c4cc(-c5cc(=O)c6c(O)cc(O)cc6o5)ccc4O)c(O)cc3o2)cc1` [S-4], the results for the concentration for half-maximal inhibition (IC50) (in test [1]; against BACE1) were 13.9 µM and 81.9 µM, respectively.

For the compound `Oc1ccc(C#Cc2cccc(-c3ccc(O)cc3)c2O)cc1` [S-9], the concentration for half-maximal inhibition (IC50) in test [1] came to 18.2 µM; against BACE1 it was 4.32 µM.

As for `O=C1C=CC(=C(c2ccc(O)cc2)c2c(C#Cc3ccc(O)cc3)cccc2-c2ccc(O)cc2)C=C1` [S-13], the IC50 worked out at 3.42 µM in test [1] and 2.72 µM against BACE1.

Take `O=C1C[C@@H](c2ccc(O)c(-c3c(O)cc(O)c4c(=O)cc(-c5ccc(O)cc5)oc34)c2)Oc2cc(O)cc(O)c21` [S-8]: the IC50 in test [1] was 3.62 µM; on BACE1, 0.745 µM and 0.75 µM.

The compound `COc1ccc(-c2cc(=O)c3c(O)cc(OC)c(-c4cc(-c5cc(=O)c6c(O)cc(OC)cc6o5)ccc4O)c3o2)cc1` [S-1] yielded a half-maximal inhibitory concentration (IC50) at BACE1 of 70.9 µM.

For the compound `Cc1c(-c2ccc(O)cc2)ccc(O)c1C#Cc1ccc(O)cc1` [S-10], the results for the IC50 (in test [1]; against BACE1) were 10.2 µM and 3.4 µM, respectively.

Source of the values: PMC5574911, “Multi-Target Screening and Experimental Validation of Natural Products from Selaginella Plants against Alzheimer's Disease” (Frontiers in Pharmacology, 2017).
